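Dose response: 5 concentrations. Exposure: 48 h. Format: 96-well plates. Endpoint: linear interpolation; highest concentration if not reached. At the TGI there is no net growth.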
Legend:
Assay in all cases: inhibition of tumour cell growth, NCI panel, 48 h
786-0 renal = tested on: 786-0 renal
A498 renal = tested on: A498 renal
A549 NSCLC = tested on: A549 NSCLC
ACHN renal = tested on: ACHN renal
CAKI-1 renal = tested on: CAKI-1 renal
CCRF-CEM leukemia = tested on: CCRF-CEM leukemia
COLO 205 colon = tested on: COLO 205 colon
DLD-1 colon = tested on: DLD-1 colon
DMS 114 small cell lung = tested on: DMS 114 small cell lung
EKVX NSCLC = tested on: EKVX NSCLC
HCC-2998 colon = tested on: HCC-2998 colon
HCT-116 colon = tested on: HCT-116 colon
HL-60(TB) leukemia = tested on: HL-60(TB) leukemia
HOP-18 NSCLC = tested on: HOP-18 NSCLC
HOP-62 NSCLC = tested on: HOP-62 NSCLC
HOP-92 NSCLC = tested on: HOP-92 NSCLC
HT29 colon = tested on: HT29 colon
IGROV1 ovarian = tested on: IGROV1 ovarian
K-562 leukemia = tested on: K-562 leukemia
KM12 colon = tested on: KM12 colon
KM20L2 colon = tested on: KM20L2 colon
LOX IMVI melanoma = tested on: LOX IMVI melanoma
LXFL 529 NSCLC = tested on: LXFL 529 NSCLC
M14 melanoma = tested on: M14 melanoma
M19-MEL melanoma = tested on: M19-MEL melanoma
MALME-3M melanoma = tested on: MALME-3M melanoma
MOLT-4 leukemia = tested on: MOLT-4 leukemia
NCI-H226 lung = tested on: NCI-H226 lung
NCI-H23 lung = tested on: NCI-H23 lung
NCI-H460 lung = tested on: NCI-H460 lung
NCI-H522 lung = tested on: NCI-H522 lung
OVCAR-3 ovarian = tested on: OVCAR-3 ovarian
OVCAR-4 ovarian = tested on: OVCAR-4 ovarian
OVCAR-8 ovarian = tested on: OVCAR-8 ovarian
RXF 393 renal = tested on: RXF 393 renal
RXF-631 renal = tested on: RXF-631 renal
SF-268 CNS = tested on: SF-268 CNS
SF-295 CNS = tested on: SF-295 CNS
SF-539 CNS = tested on: SF-539 CNS
SK-MEL-28 melanoma = tested on: SK-MEL-28 melanoma
SK-MEL-5 melanoma = tested on: SK-MEL-5 melanoma
SK-OV-3 ovarian = tested on: SK-OV-3 ovarian
SN12C renal = tested on: SN12C renal
SNB-19 CNS = tested on: SNB-19 CNS
SNB-75 CNS = tested on: SNB-75 CNS
SNB-78 CNS = tested on: SNB-78 CNS
SR leukemia = tested on: SR leukemia
SW-620 colon = tested on: SW-620 colon
TK-10 renal = tested on: TK-10 renal
U251 CNS = tested on: U251 CNS
UACC-257 melanoma = tested on: UACC-257 melanoma
UACC-62 melanoma = tested on: UACC-62 melanoma
UO-31 renal = tested on: UO-31 renal
XF 498 CNS = tested on: XF 498 CNS
DMS 273 small cell lung = tested on: DMS 273 small cell lung
HCT-15 colon = tested on: HCT-15 colon
RPMI-8226 leukemia = tested on: RPMI-8226 leukemia
SK-MEL-2 melanoma = tested on: SK-MEL-2 melanoma

CC(=O)c1ccc(NC(=O)COC(=O)c2cccc3c(=O)c4ccccc4[nH]c23)cc1
TGI (786-0 renal): > 100 µM
TGI (A498 renal): > 100 µM
TGI (A549 NSCLC): > 100 µM
TGI (ACHN renal): > 100 µM
TGI (CAKI-1 renal): > 100 µM
TGI (CCRF-CEM leukemia): > 100 µM
TGI (COLO 205 colon): > 100 µM
TGI (DLD-1 colon): > 100 µM
TGI (DMS 114 small cell lung): > 100 µM
TGI (EKVX NSCLC): > 100 µM
TGI (HCC-2998 colon): > 100 µM
TGI (HCT-116 colon): 42.8 µM
TGI (HL-60(TB) leukemia): > 100 µM
TGI (HOP-18 NSCLC): > 100 µM
TGI (HOP-62 NSCLC): 90.7 µM
TGI (HOP-92 NSCLC): > 100 µM
TGI (HT29 colon): > 100 µM
TGI (IGROV1 ovarian): > 100 µM
TGI (K-562 leukemia): > 100 µM
TGI (KM12 colon): > 100 µM
TGI (KM20L2 colon): > 100 µM
TGI (LOX IMVI melanoma): 51.5 µM
TGI (LXFL 529 NSCLC): > 100 µM
TGI (M14 melanoma): > 100 µM
TGI (M19-MEL melanoma): > 100 µM
TGI (MALME-3M melanoma): > 100 µM
TGI (MOLT-4 leukemia): > 100 µM
TGI (NCI-H226 lung): 46.2 µM
TGI (NCI-H23 lung): > 100 µM
TGI (NCI-H460 lung): > 100 µM
TGI (NCI-H522 lung): > 100 µM
TGI (OVCAR-3 ovarian): 69.4 µM
TGI (OVCAR-4 ovarian): 25.9 µM
TGI (OVCAR-8 ovarian): > 100 µM
TGI (RXF 393 renal): > 100 µM
TGI (RXF-631 renal): > 100 µM
TGI (SF-268 CNS): > 100 µM
TGI (SF-295 CNS): 49.2 µM
TGI (SF-539 CNS): 33.9 µM
TGI (SK-MEL-28 melanoma): > 100 µM
TGI (SK-MEL-5 melanoma): > 100 µM
TGI (SK-OV-3 ovarian): > 100 µM
TGI (SN12C renal): > 100 µM
TGI (SNB-19 CNS): 68.6 µM
TGI (SNB-75 CNS): 31.5 µM
TGI (SNB-78 CNS): > 100 µM
TGI (SR leukemia): > 100 µM
TGI (SW-620 colon): > 100 µM
TGI (TK-10 renal): 60.6 µM
TGI (U251 CNS): 86.5 µM
TGI (UACC-257 melanoma): > 100 µM
TGI (UACC-62 melanoma): > 100 µM
TGI (UO-31 renal): > 100 µM
TGI (XF 498 CNS): 55.5 µM

OCCN(CCO)c1cccc(N(CCO)CCO)n1
TGI (786-0 renal): > 100 µM
TGI (A498 renal): > 100 µM
TGI (A549 NSCLC): > 100 µM
TGI (ACHN renal): > 100 µM
TGI (CAKI-1 renal): > 100 µM
TGI (CCRF-CEM leukemia): > 100 µM
TGI (COLO 205 colon): > 100 µM
TGI (DLD-1 colon): > 100 µM
TGI (DMS 114 small cell lung): > 100 µM
TGI (DMS 273 small cell lung): > 100 µM
TGI (EKVX NSCLC): > 100 µM
TGI (HCT-116 colon): > 100 µM
TGI (HCT-15 colon): > 100 µM
TGI (HL-60(TB) leukemia): > 100 µM
TGI (HOP-62 NSCLC): > 100 µM
TGI (HOP-92 NSCLC): > 100 µM
TGI (K-562 leukemia): > 100 µM
TGI (KM12 colon): > 100 µM
TGI (KM20L2 colon): > 100 µM
TGI (LOX IMVI melanoma): > 100 µM
TGI (LXFL 529 NSCLC): > 100 µM
TGI (M14 melanoma): > 100 µM
TGI (M19-MEL melanoma): > 100 µM
TGI (MOLT-4 leukemia): > 100 µM
TGI (NCI-H460 lung): > 100 µM
TGI (NCI-H522 lung): > 100 µM
TGI (OVCAR-3 ovarian): > 100 µM
TGI (OVCAR-4 ovarian): > 100 µM
TGI (OVCAR-8 ovarian): > 100 µM
TGI (RPMI-8226 leukemia): > 100 µM
TGI (RXF 393 renal): > 100 µM
TGI (RXF-631 renal): > 100 µM
TGI (SF-268 CNS): > 100 µM
TGI (SF-295 CNS): > 100 µM
TGI (SK-MEL-2 melanoma): > 100 µM
TGI (SK-MEL-28 melanoma): > 100 µM
TGI (SK-MEL-5 melanoma): > 100 µM
TGI (SK-OV-3 ovarian): > 100 µM
TGI (SNB-19 CNS): > 100 µM
TGI (SNB-75 CNS): > 100 µM
TGI (SNB-78 CNS): > 100 µM
TGI (SR leukemia): > 100 µM
TGI (SW-620 colon): > 100 µM
TGI (TK-10 renal): > 100 µM
TGI (U251 CNS): > 100 µM
TGI (UACC-257 melanoma): > 100 µM
TGI (UACC-62 melanoma): > 100 µM
TGI (UO-31 renal): > 100 µM
TGI (XF 498 CNS): > 100 µM

Source: PubChem BioAssay (NCI)
